# Reference: patent publication US20240207265A1, “TREATMENT OF CNS DISEASES WITH sGC STIMULATORS” (Tisento Therapeutics Inc., priority 2021, published 2024)
# Molecular target: T1, human α2β1 sGC isozyme (Homo sapiens, UniProt P33402+Q02153)
# T1 construct: host or cells: CHO-K1
# T1 sequence (P33402 1-732): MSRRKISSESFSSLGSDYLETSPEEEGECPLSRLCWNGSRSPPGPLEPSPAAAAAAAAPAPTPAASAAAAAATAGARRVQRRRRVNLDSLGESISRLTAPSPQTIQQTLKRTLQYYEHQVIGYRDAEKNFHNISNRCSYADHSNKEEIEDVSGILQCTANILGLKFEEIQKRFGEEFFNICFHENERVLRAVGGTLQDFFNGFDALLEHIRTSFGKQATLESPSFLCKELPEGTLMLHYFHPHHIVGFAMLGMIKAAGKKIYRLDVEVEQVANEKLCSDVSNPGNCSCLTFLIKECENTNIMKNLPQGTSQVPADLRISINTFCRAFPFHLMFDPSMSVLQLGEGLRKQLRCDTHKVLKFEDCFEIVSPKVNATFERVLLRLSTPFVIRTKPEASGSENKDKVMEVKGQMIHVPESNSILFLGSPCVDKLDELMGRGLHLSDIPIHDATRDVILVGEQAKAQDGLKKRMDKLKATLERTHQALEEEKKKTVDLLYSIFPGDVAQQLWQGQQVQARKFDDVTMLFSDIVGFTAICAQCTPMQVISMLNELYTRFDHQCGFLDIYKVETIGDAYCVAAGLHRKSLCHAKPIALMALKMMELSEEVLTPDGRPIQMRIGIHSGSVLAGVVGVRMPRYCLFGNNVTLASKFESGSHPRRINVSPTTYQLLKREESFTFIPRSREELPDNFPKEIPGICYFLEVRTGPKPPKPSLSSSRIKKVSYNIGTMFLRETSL
# T1 sequence (Q02153 1-619): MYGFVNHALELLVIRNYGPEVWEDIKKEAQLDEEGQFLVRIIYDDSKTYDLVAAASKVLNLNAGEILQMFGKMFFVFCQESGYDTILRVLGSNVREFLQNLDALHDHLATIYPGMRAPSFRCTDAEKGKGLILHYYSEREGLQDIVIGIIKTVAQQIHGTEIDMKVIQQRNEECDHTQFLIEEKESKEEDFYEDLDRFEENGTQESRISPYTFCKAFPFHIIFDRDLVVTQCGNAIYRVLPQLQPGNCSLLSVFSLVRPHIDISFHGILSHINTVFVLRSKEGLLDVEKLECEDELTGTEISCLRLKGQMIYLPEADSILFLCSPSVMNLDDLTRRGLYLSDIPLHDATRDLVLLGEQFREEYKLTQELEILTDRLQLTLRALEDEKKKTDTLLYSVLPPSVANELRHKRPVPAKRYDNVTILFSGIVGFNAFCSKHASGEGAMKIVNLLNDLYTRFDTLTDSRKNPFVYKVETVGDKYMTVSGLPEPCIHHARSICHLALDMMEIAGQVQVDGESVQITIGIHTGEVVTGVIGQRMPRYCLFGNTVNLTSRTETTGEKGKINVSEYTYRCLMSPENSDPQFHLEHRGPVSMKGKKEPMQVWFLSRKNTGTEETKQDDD
# Experiment: cGMP assay in CHO-K1 cells stably expressing human α2β1 sGC isozyme
# Type: cell-based
# Settings: 10 μM DETA-NONOate
# Procedure: sGC stimulators were dissolved in DMSO as a 10 mM solution and stored at −20° C. To achieve desired test concentrations, stock concentrations were serially diluted into DMSO and then diluted to the appropriate concentration in assay buffer.
# CHO-K1 cells stably transfected with human α2β1 sGC isozyme (generated by GenScript for Ironwood) were cultured in F-12K medium (ATCC catalog #30-2004) with 10% fetal calf serum, 4 μg/mL puromycin (Gibco catalog #A11138-03) and 0.4 mg/mL of geneticin (Gibco catalog #10131-027) in a 95% humidified atmosphere containing 5% CO2 in air at 37° C. For GC activity assays, cells were seeded in 384 well poly-D-lysine coated flat bottom plates (Fisher Scientific #08-774-311) in either 50 μL or 70 μL medium at a density of either 3×10^4 cells/well or 15×10^3, respectively. Cells were incubated for 24 hours at 37° C. in a humidified chamber supplemented with 5% CO2.
# For each test concentration, the compound was diluted in 100% DMSO to 100-fold of its final assay concentration. Immediately prior to the assay, the solution was diluted 20-fold into HBSS containing calcium, magnesium, and 50 μM DETA-NONOate (5× the final assay concentration). Medium was removed and cells were washed once with 40 μL of HBSS. Cells were then incubated with 40 μL of a solution containing 0.5 mM IBMX in HBSS for 15 min at 37° C. 10 μL from the sGC stimulator/HBSS/DETA-NONOate plate was added to the cells, which were incubated for an additional 20 min at 37° C. Final DMSO concentration was 1%, final DETA-NONOate concentration was 10 μM; and final compound concentrations were 30,000 nM, 6000 nM, 1200 nM, 240 nM, 48 nM, 9.6 nM, 1.92 nM, 0.384 nM, 0.077 nM, 0.015 nM, or 0.003 nM.
# Following incubation with compound, assay buffer was removed and 50 μL of ice-cold 10% acetic acid+150 ng/mL internal standard (+3 cGMP) was added to each well. Samples were incubated on ice for 30-60 min. Following centrifugation at 4° C. for 5 min at 1000×g to pellet cell debris, the supernatant was transferred to a clean plate and the samples analyzed for cGMP content.
# Data were analyzed with a 4-parameter fit (log(agonist) vs. response-variable slope) using GraphPad Prism Software v.8. The EC50 was interpolated from the curve fit and is defined as the concentration at which the compound elicits 50% of its maximal response. When the experiment was carried out multiple times for a given compound, the geometrical mean of all experiments is reported.
row,SMILES,EC50
1,Oc1nc(-c2cn3c(F)cnc3c(Cc3cc(F)ccc3F)n2)ncc1F [Compound I-5],≤ 100 nM
2,"Oc1nc(-c2cn3ccnc3c(Cc3cc(F)ccc3F)n2)ncc1Cl [Compound I-16, 5-chloro-2-(8-(2,5-difluorobenzyl)imidazo[1,2-a]pyrazin-6-yl)pyrimidin-4-ol]",≤ 100 nM
3,"Oc1nc(-c2cn3ccnc3c(Cc3ccccc3)n2)ncc1F [Compound I-2, 2-(8-Benzylimidazo[1,2-a]pyrazin-6-yl)-5-fluoropyrimidin-4-ol]",100 to 1000 nM
4,Oc1nc(-c2cn3ccnc3c(Cc3ccccc3F)n2)ncc1F [Compound I-21],≤ 100 nM
5,"Oc1nc(-c2cn3ccnc3c(Cc3cc(F)ccc3F)n2)ncc1F [Compound I-20, 5-fluoro-2-(8-(2,5-difluorobenzyl)imidazo[1,2-a]pyrazin-6-yl)pyrimidin-4-ol]",≤ 100 nM
6,Cc1cc(F)c(Cc2nc(-c3ncc(F)c(O)n3)cn3c(F)cnc23)cc1F [Compound I-18],≤ 100 nM
7,Oc1nc(-c2cn3ncnc3c(Cc3ccccc3F)n2)ncc1F [Compound I-23],100 to 1000 nM
8,"Oc1nc(-c2cn3ccnc3c(Cc3cccc(F)c3F)n2)ncc1F [Compound I-4, 2-(8-(2,3-Difluorobenzyl)imidazo[1,2-a]pyrazin-6-yl)-5-fluoropyrimidin-4-ol]",≤ 100 nM
9,"Cc1cc(F)c(Cc2nc(-c3nccc(O)n3)cn3ccnc23)cc1F [Compound I-15, 2-(8-(2,5-difluoro-4-methylbenzyl)imidazo[1,2-a]pyrazin-6-yl)pyrimidin-4-ol]",100 to 1000 nM
10,"Cc1cc(F)c(Cc2nc(-c3ncc(F)c(O)n3)cn3ncnc23)cc1F [Compound I-19, 5-Fluoro-2-(8-(2,5-difluoro-4-methylbenzyl)-[1,2,4]triazolo[1,5-a]pyrazin-6-yl)pyrimidin-4-ol]",≤ 100 nM
